Assays:
HOP-62 = test: NCI60 antiproliferative screen, lung HOP-62; type: cell-based, human; conditions: Homo sapiens; HOP-62, 48 h, sulforhodamine B; read-out: Cytotoxicity (GI50) lung HOP-62
Procedure: (§1) All of the indenoisoquinolines were tested for antiproliferative activity in the National Cancer Institute's 60 cell line screen (NCI60). The cells were incubated with the tested compounds at 100, 10, 1, 0.1, and 0.01 μM concentrations for 48 h before treatment with sulforhodamine B dye. Optical densities were recorded, and their ratios relative to that of the control were plotted as percentage growth against the log 10 of the tested compound concentrations. The concentration that corresponds to 50% growth inhibition (GI50) is calculated by interpolation between the points located above and below the 50% percentage growth. The mean-graph midpoint (MGM) is an estimated average of the GI50 values derived from the NCI collection of 60 human cancer cell lines, where during the MGM calculation, anticancer agents with GI50 values that are outside the testing range of 0.01-100 μM are arbitrarily assigned the values of 0.01 and 100 μM, respectively. […] Also, the GI50 values of many of the substances vs. individual human cancer cell lines are below the lowest concentration used (0.01 μM) in the standard NCI testing protocol. […] For example, the MGM cytotoxicity values of 9, 15-17, and 19 are all very close to each other, but the Top1 inhibitory activities range from +++(+) to 0.

HCT-116 = test: NCI60 antiproliferative screen, colon HCT-116; type: cell-based, human; conditions: Homo sapiens; HCT-116, 48 h, sulforhodamine B; read-out: Cytotoxicity (GI50) Colon HCT-116
Procedure: as §1

SF-539 = test: NCI60 antiproliferative screen, CNS SF-539; type: cell-based, human; conditions: Homo sapiens; SF-539, 48 h, sulforhodamine B; read-out: Cytotoxicity (GI50) CNS SF-539
Procedure: as §1

UACC-62 = test: NCI60 antiproliferative screen, melanoma UACC-62; type: cell-based, human; conditions: Homo sapiens; UACC-62, 48 h, sulforhodamine B; read-out: Cytotoxicity (GI50) melanoma UACC-62
Procedure: as §1

OVCAR-3 = test: NCI60 antiproliferative screen, ovarian OVCAR-3; type: cell-based, human; conditions: Homo sapiens; OVCAR-3, 48 h, sulforhodamine B; read-out: Cytotoxicity (GI50) Ovarian OVCAR-3
Procedure: as §1

SN12C = test: NCI60 antiproliferative screen, renal SN12C; type: cell-based, human; conditions: Homo sapiens, 48 h, sulforhodamine B, read-out: Cytotoxicity (GI50) renal SN12C
Procedure: as §1

DU-145 = test: NCI60 antiproliferative screen, prostate DU-145; type: cell-based, human; conditions: Homo sapiens; DU-145, 48 h, sulforhodamine B; read-out: Cytotoxicity (GI50) prostate DU-145
Procedure: as §1

MCF-7 = test: NCI60 antiproliferative screen, breast MCF-7; type: cell-based, human; conditions: Homo sapiens, MCF7; MCF-7, 48 h, sulforhodamine B; read-out: Cytotoxicity (GI50) breast MCF-7
Procedure: as §1

[1] = test system: all human cancer cell lines successfully tested (NCI60); test: NCI60 mean graph midpoint for growth inhibition; type: cell-based; conditions: all human cancer cell lines successfully tested; ± standard error; read-out: MGM (mean graph midpoint for growth inhibition)
Procedure: as §1

Human recombinant Top1 = target: T1, Human recombinant Top1 (Homo sapiens, UniProt P11387); test: Top1-mediated DNA cleavage assay; type: biochemical; conditions: graded relative to 1 μM camptothecin
T1 construct: made in house
T1 sequence (P11387 1-765): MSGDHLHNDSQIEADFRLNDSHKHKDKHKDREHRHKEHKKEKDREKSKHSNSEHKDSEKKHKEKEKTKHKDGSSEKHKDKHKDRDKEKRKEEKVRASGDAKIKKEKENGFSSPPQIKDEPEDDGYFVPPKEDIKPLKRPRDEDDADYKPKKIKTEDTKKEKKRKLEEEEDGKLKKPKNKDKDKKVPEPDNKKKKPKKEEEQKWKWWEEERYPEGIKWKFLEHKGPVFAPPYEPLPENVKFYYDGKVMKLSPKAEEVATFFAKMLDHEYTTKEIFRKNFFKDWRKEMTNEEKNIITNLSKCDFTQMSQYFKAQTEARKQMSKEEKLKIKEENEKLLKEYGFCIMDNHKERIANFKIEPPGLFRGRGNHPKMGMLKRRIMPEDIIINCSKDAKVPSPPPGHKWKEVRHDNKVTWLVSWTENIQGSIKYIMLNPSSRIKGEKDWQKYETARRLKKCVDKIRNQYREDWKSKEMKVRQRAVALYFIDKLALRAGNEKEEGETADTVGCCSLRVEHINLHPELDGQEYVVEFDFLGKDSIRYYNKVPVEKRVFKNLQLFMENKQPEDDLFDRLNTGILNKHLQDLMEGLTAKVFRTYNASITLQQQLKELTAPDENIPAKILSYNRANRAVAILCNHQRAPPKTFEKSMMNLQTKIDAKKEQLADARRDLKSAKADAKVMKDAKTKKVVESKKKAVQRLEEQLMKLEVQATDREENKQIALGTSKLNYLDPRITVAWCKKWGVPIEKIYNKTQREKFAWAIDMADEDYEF
Procedure: All of the new indenoisoquinoline derivatives were tested in Top1-mediated DNA cleavage assays. For this purpose, a ^32P 3′-end labeled 117-bp DNA fragment was incubated with Top1 at four concentrations of a tested compound. The DNA fragments were separated on 20% PAGE denaturing gels. The Top1 inhibitory activities were assigned on the basis of the visual inspection of the number and intensities of the gel bands corresponding to Top1-mediated DNA cleavage fragments and scored relative to the Top1 inhibitory activity of compounds 1 and 4. Results are expressed in semiquantitative fashion: 0, no detectable activity; +, weak activity; ++, similar activity to compound 4; +++, greater activity than 4; ++++, equipotent with 1. Ambiguous scores (e.g., between two values) are designated with parentheses (e.g., ++(+) would be between ++ and +++). […] After conversion of the hydroxyl to a dimethylcarbamate, the observed Top1 inhibitory activity increased from ++(+) for compound 8 to +++ for compound 10. Introduction of an acetyl group at the 0-2 position yielded compound 11, which was also a Top1 poison with activity at the ++ level. Subsequently, several hydrophobic substituents were attached to the 0-2 position.
Topoisomerase I-Mediated DNA Cleavage Reactions.
Human recombinant Top1 was purified from baculovirus as previously described (Morrell, A., et al., J. Med. Chem. 2007, 50, 2040-2048). DNA cleavage reactions were prepared as previously reported with the exception of the DNA substrate (Strumberg, D., et al., J. Med. Chem. 1999, 42, 446-457). Briefly, a 117-bp DNA oligonucleotide (Integrated DNA Technologies) encompassing the previously identified Top1 cleavage sites in the 161-bp fragment from pBluescript SK(−) phagemid DNA was employed. This 117-bp oligonucleotide contains a single 5′-cytosine overhang, which was 3′-end-labeled by fill-in reaction with [α-^32P]dGTP in React 2 buffer (50 mM Tris-HCl, pH 8.0, […], 50 mM NaCl) with 0.5 unit of DNA polymerase I (Klenow fragment, New England BioLabs). Unincorporated [^32P]dGTP was removed using mini Quick Spin DNA columns (Roche, Indianapolis, Ind.), and the eluate containing the 3′-end-labeled DNA substrate was collected. Approximately 2 nM radiolabeled DNA substrate was incubated with recombinant Top1 in 20 μL of reaction buffer [10 mM Tris-HCl (pH 7.5), 50 mM KCl, 5 mM MgCl2, 0.1 mM EDTA, and 15 μg/mL BSA] at 25° C. for 20 min in the presence of various concentrations of compounds. The reactions were terminated by adding SDS (0.5% final concentration) followed by the addition of two volumes of loading dye (80% formamide, 10 mM sodium hydroxide, 1 mM sodium EDTA, 0.1% xylene cyanol, and 0.1% bromophenol blue). Aliquots of each reaction mixture were subjected to 20% denaturing PAGE. Gels were dried and visualized by using a phosphoimager and ImageQuant software (Molecular Dynamics). For simplicity, cleavage sites were numbered as previously described in the 161-bp fragment.

In the case of `COc1cc2c3c(n(CCCN4CCOCC4)c(=O)c2cc1OC(=O)c1cccnc1)-c1cc2c(cc1C3=O)OCO2` [Compound 19, 2-Methoxy-6-(3-morpholinopropyl)-5,12-dioxo-6,12-dihydro-5H-[1,3]dioxolo[4′,5′:5,6]indeno[1,2-c]isoquinolin-3-yl Nicotinate], the GI50 (HOP-62) is reported as < 10 nM, the GI50 (HCT-116) is reported as < 10 nM and the GI50 (SF-539) is reported as < 10 nM. For the same compound, the GI50 (UACC-62) was < 10 nM, the GI50 (OVCAR-3) was 15 nM and the GI50 (SN12C) was < 10 nM. For the same compound, the GI50 (DU-145) was < 10 nM, the GI50 (MCF-7) was < 10 nM and the mean GI50 across NCI60 cell lines (MGM) [1] was 35 nM. The “Top 1 Cleavage” value (Human recombinant Top1) was “+ (+, between 20 and 50% activities)” and the melting point was 274 to 276 °C (dec.).
